# From US10010547B2 (CASCADIAN THERAPEUTICS, INC., priority 2014, dated 2018)
# Structures can show the parent of a compound that is named as a salt. Where two headings read alike, the source gives them in different places.
# Experiments:
# MIA PaCa-2 cells = assay: Gemcitabine Combination Cell Assay (Cell Titer Glo); assay type: cell-based; details: for IC50: Homo sapiens; for 10xLS: approximate concentration of Chk1 inhibitor that results in a 10-fold reduction in the IC50 of gemcitabine alone; for 2xLS: approximate concentration of Chk1 inhibitor that results in a two-fold reduction in the IC50 of gemcitabine alone
# Method in brief: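 MIA PaCa-2 cells were treated 72 h with half-log dilutions of Chk1 inhibitor (top 3000 nM) and gemcitabine (top 100 nM), alone and in full matrix; viability by CellTiter-Glo luminescence. IC50s from four-parameter fit; Chk1 inhibitor concentrations giving two- and ten-fold lowering of gemcitabine IC50 were estimated.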
# Chk-1 kinase = Chk-1 kinase (Homo sapiens (Human), UniProt O14757); assay: Chk-1 Kinase Inhibiting Activity (33P-ATP filter assay, CHKtide substrate); assay type: biochemical; details: against Chk-1 kinase; read-out: IC50
# Method in brief: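 Full-length N-terminal GST-tagged human Chk-1 from insect cells, 0.5 nM final, with 20 μM peptide substrate and 33P-ATP in HEPES pH 7.5 buffer with 1% DMSO. Reaction ran 120 minutes at room temperature; incorporated radioactivity captured on P81 filters and counted for IC50.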
# [1] = Chk1 inhibitor alone, MIA PaCa-2 cells, 72 h, read-out: Chk1 IC50
# [2] = MIA PaCa-2, 72 h, read-out: Chk1 IC50 (nM)
# Chain of Chk-1 kinase (O14757 whole entry): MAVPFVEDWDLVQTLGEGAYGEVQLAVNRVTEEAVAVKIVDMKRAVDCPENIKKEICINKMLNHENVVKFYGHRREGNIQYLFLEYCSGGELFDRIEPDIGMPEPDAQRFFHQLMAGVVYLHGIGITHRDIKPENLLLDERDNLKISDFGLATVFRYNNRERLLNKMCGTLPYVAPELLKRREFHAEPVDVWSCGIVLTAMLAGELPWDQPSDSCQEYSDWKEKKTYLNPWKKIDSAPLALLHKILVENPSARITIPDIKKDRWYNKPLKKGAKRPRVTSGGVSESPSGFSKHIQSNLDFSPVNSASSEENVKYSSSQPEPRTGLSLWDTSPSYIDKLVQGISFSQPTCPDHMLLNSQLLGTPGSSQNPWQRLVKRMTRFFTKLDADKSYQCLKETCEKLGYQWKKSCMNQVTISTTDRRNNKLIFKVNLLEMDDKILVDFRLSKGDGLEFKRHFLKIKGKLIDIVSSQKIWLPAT
SMILES,IC50 (MIA PaCa-2 cells; [1]),IC50 (Chk-1 kinase),"10xLS (MIA PaCa-2 cells; MIA PaCa-2 cells, 72 h)","2xLS (MIA PaCa-2 cells; MIA PaCa-2 cells, 72 h)",IC50 (MIA PaCa-2 cells; [2])
"COc1cc(CO[C@H]2CCN(C(C)C)C2)ccc1-c1cc(Nc2cnc(C#N)cn2)n[nH]1 [Example 139, 5-[[5-[4-[[(3S)-1-isopropylpyrrolidin-3-yl]oxymethyl]-2-methoxy-phenyl]-1H-pyrazol-3-yl]amino]pyrazine-2-carbonitrile]",743 nM,0.027 nM,300 nM,10 nM,–
"CCN1CC[C@H](OCc2ccc(-c3cc(Nc4cnc(C#N)cn4)n[nH]3)c(OC)c2)C1 [Example 138, 5-[[5-[4-[[(3S)-1-ethylpyrrolidin-3-yl]oxymethyl]-2-methoxy-phenyl]-1H-pyrazol-3-yl]amino]pyrazine-2-carbonitrile]",836 nM,0.041 nM,300 nM,<10 nM,–
"COc1cc(CN[C@H](C)CN2CCOCC2)ccc1-c1cc(Nc2cnc(C#N)cn2)n[nH]1 [Example 18, 5-[[5-[2-methoxy-4-[[[(1R)-1-methyl-2-morpholino-ethyl]amino]methyl]phenyl]-1H-pyrazol-3-yl]amino]pyrazine-2-carbonitrile]",1610 nM,0.17 nM,~200 nM,~5 nM,–
"COc1cc(OC[C@@H]2CCCN2C(C)C)ccc1-c1cc(Nc2cnc(C#N)cn2)n[nH]1 [Example 129, 5-[[5-[4-[[(2S)— 1-isopropylpyrrolidin-2-yl]methoxy]-2-methoxy-phenyl]-1H-pyrazol-3-yl]amino]pyrazine-2-carbonitrile]",278 nM,0.046 nM,<100 nM,<3 nM,–
"COc1cc(OC[C@H]2CCCN2C)ccc1-c1cc(Nc2cnc(C#N)cn2)n[nH]1 [Example 103, 5-[[5-[2-methoxy-4-[[(2R)-1-methylpyrrolidin-2-yl]methoxy]phenyl]-1H-pyrazol-3-yl]amino]pyrazine-2-carbonitrile hydrochloride]",–,0.109 nM,300 nM,3 nM,184 nM
"COc1cc(N2CCN(C(C)C)[C@H](C)C2)ccc1-c1cc(Nc2cnc(C#N)cn2)n[nH]1 [Example 133, 5-[[5-[4-[(3R)-4-isopropyl-3-methyl-piperazin-1-yl]-2-methoxy-phenyl]-1H-pyrazol-3-yl]amino]pyrazine-2-carbonitrile]",139 nM,0.12 nM,30 nM,<3 nM,–
"COc1cc(CNC2CCOCC2)ccc1-c1cc(Nc2cnc(C#N)cn2)n[nH]1 [Example 14, 5-[[5-[2-Methoxy-4-[(tetrahydropyran-4-ylamino)methyl]phenyl]-1H-pyrazol-3-yl]amino]pyrazine-2-carbonitrile hydrochloride]",–,0.026 nM,~50 nM,<3 nM,894 nM
"COc1cc(N2CCN(C)CC2)ccc1-c1cc(Nc2cnc(C#N)cn2)n[nH]1 [Example 22, 5-[[5-[2-methoxy-4-(4-methylpiperazin-1-yl)phenyl]-1H-pyrazol-3-yl]amino]pyrazine-2-carbonitrile hydrochloride]",–,0.026 nM,<30 nM,<3 nM,88 nM

# Now from value to molecule, other results behind:
IC50 (MIA PaCa-2 cells; [1]),IC50 (Chk-1 kinase),SMILES,"10xLS (MIA PaCa-2 cells; MIA PaCa-2 cells, 72 h)","2xLS (MIA PaCa-2 cells; MIA PaCa-2 cells, 72 h)",IC50 (MIA PaCa-2 cells; [2])
354 nM,0.28 nM,"COc1cc(CN(C)C2CCOC2)ccc1-c1cc(Nc2cnc(C#N)cn2)n[nH]1 (stereo not shown) [Example 73, 5-[[5-[2-methoxy-4-[[methyl(tetra hydrofuran-3-yl)amino]methyl]phenyl]-1H-pyrazol-3-yl]amino]pyrazine-2-carbonitrile]",300 nM,10 nM,–
> 3000 nM,> 100 nM,"COC(=O)c1cnc(Nc2cc(-c3ccc(C4CCNCC4)cc3OC)[nH]n2)cn1 [Example 71, methyl 5-[[5-[2-methoxy-4-(4-piperidyl)phenyl]-1H-pyrazol-3-yl]amino]pyrazine-2-carboxylate]",>3000 nM,>3000 nM,–
334 nM,0.054 nM,"COc1cc(OC2CCN(C(C)C)CC2)ccc1-c1cc(Nc2cnc(C#N)cn2)n[nH]1 [Example 135, 5-[[5-[4-[(1-isopropyl-4-piperidyl)oxy]-2-methoxy-phenyl]-1H-pyrazol-3-yl]amino]pyrazine-2-carbonitrile]",100 nM,<3 nM,–
235 nM,0.23 nM,"COc1cc(C2C[C@H](C)N[C@@H](C)C2)ccc1-c1cc(Nc2cnc(C#N)cn2)n[nH]1 (stereo partly drawn) [Example 47, 5-[[5-[4-[(2S,6S)-2,6-dimethyl-4-piperidyl]-2-methoxy-phenyl]-1H-pyrazol-3-yl]amino]pyrazine-2-carbonitrile]",100 nM,3 nM,–
411 nM,0.33 nM,"COc1cc(CNC2CC2)ccc1-c1cc(Nc2cnc(C#N)cn2)n[nH]1 [Example 91, 5-[[5-[4-[(cyclopropylamino)methyl]-2-methoxy-phenyl]-1H-pyrazol-3-yl]amino]pyrazine-2-carbonitrile]",<100 nM,<3 nM,–
259 nM,0.058 nM,"COc1cc(CNCc2ccc(F)cc2)ccc1-c1cc(Nc2cnc(C#N)cn2)n[nH]1 [Example 8, 5-(5-{4-[(4-fluoro-benzylamino)-methyl]-2-methoxy-phenyl}-1H-pyrazol-3-ylamino)-pyrazine-2-carbonitrile]",~200 nM,10 nM,–
77 nM,0.043 nM,"CCN1CCC(CNc2ccc(-c3cc(Nc4cnc(C#N)cn4)n[nH]3)c(OC)c2)CC1 [Example 108, 5-[[5-[4-[(1-ethyl-4-piperidyl)methylamino]-2-methoxy-phenyl]-1H-pyrazol-3-yl]amino]pyrazine-2-carbonitrile]",30 nM,<3 nM,–
253 nM,0.0042 nM,"COc1cc(NC2CCN(C(C)C)CC2)ccc1-c1cc(Nc2cnc(C#N)cn2)n[nH]1 [Example 112, 5-[[5-[4-[(1-isopropyl-4-piperidyl)amino]-2-methoxy-phenyl]-1H-pyrazol-3-yl]amino]pyrazine-2-carbonitrile]",100 nM,<3 nM,–
3570 nM,36 nM,"COc1cc(C2CCNCC2)ccc1-c1cc(Nc2ccc(C#N)c(F)c2)n[nH]1 [Example 49, 2-fluoro-4-[[5-[2-methoxy-4-(4-piperidyl)phenyl]-1H-pyrazol-3-yl]amino]benzonitrile]",<3000 nM,1000 nM,–
137 nM,0.12 nM,"COc1cc(N2CCCNCC2)ccc1-c1cc(Nc2cnc(C#N)cn2)n[nH]1 [Example 54, 5-[[5-[4-(1,4-diazepan-1-yl)-2-methoxy-phenyl]-1H-pyrazol-3-yl]amino]pyrazine-2-carbonitrile]",30 nM,<3 nM,–
193 nM,0.051 nM,"COCCN1CCC(c2ccc(-c3cc(Nc4cnc(C#N)cn4)n[nH]3)c(OC)c2)CC1 [Example 89, 5-[[5-[2-methoxy-4-[1-(2-methoxyethyl)-4-piperidyl]phenyl]-1H-pyrazol-3-yl]amino]pyrazine-2-carbonitrile]",100 nM,<3 nM,–
